Data taken from the supplement of paper PMC10307832.

Assays:
Experiment in all cases: relative viability (nuclei count vs DMSO), 5 days (fraction); higher = more cells survive
[1] = compound: CC1=CC(=C(N1C2=CC=C(C=C2)Cl)C)C(=O)CN3CCCCC3 [IU1-47] + Cc1nc(NC(=O)N2CCC[C@H]2C(N)=O)sc1-c1ccnc(C(C)(C)C(F)(F)F)c1 [Alpelisib] (partner 2 µM)
Procedure, shortened: (§1)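 Lung cancer cell lines, seeded in 1536-well plates, were treated the following day by pin tool with a single drug or with five library-drug doses (not always all listed) in √10 steps on top of a fixed anchor-drug dose. Cells were fixed and nuclei stained in one step after 5 days, and nuclei were counted. Relative viability is the nuclei count for treated wells divided by that for vehicle wells, reported as medians of duplicate plates.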

[2] = compound: CC1=CC(=C(N1C2=CC=C(C=C2)Cl)C)C(=O)CN3CCCCC3 [IU1-47] + Cc1nc(Nc2ncc(C(=O)Nc3c(C)cccc3Cl)s2)cc(N2CCN(CCO)CC2)n1 [Dasatinib] (partner 0.075 µM)
Procedure, shortened: as §1

[3] = compound: Cc1nc(C(=O)NCC(=O)O)c(O)c2ccc(Oc3ccccc3)cc12 [FG-4592] + COc1cc2c(Oc3ccc(NC(=O)C4(C(=O)Nc5ccc(F)cc5)CC4)cc3F)ccnc2cc1OCCCN1CCOCC1 [Foretinib] (partner 0.25 µM)
Procedure, shortened: as §1

[4] = compound: Cc1nc(C(=O)NCC(=O)O)c(O)c2ccc(Oc3ccccc3)cc12 [FG-4592] + N=C(N)NC(=N)NCCc1ccccc1 [Phenformin] (partner 250 µM)
Procedure, shortened: as §1

Cell Line: NCI-H2009
- relative viability ([1]; first compound 0.08 µM): 1.24
- relative viability ([1]; first compound 0.253 µM): 1.18
- relative viability ([1]; first compound 0.8 µM): 1.13
- relative viability ([1]; first compound 2.53 µM): 1.18
- relative viability ([1]; first compound 8 µM): 1.21
- relative viability ([2]; first compound 0.08 µM): 0.257
- relative viability ([2]; first compound 0.253 µM): 0.263
- relative viability ([2]; first compound 0.8 µM): 0.293
- relative viability ([2]; first compound 2.53 µM): 0.231
- relative viability ([2]; first compound 8 µM): 0.241
- relative viability ([3]; first compound 0.08 µM): 1.21
- relative viability ([3]; first compound 0.253 µM): 1.11
- relative viability ([3]; first compound 0.8 µM): 1.13
- relative viability ([3]; first compound 2.53 µM): 1.14
- relative viability ([3]; first compound 8 µM): 1.11
- relative viability ([4]; first compound 0.08 µM): 0.502
- relative viability ([4]; first compound 0.253 µM): 0.402
- relative viability ([4]; first compound 0.8 µM): 0.53
- relative viability ([4]; first compound 2.53 µM): 0.454
- relative viability ([4]; first compound 8 µM): 0.549

Cell Line: NCI-H2023
- relative viability ([1]; first compound 0.08 µM): 0.6
- relative viability ([1]; first compound 0.253 µM): 0.531
- relative viability ([1]; first compound 0.8 µM): 0.511
- relative viability ([1]; first compound 2.53 µM): 0.627
- relative viability ([1]; first compound 8 µM): 0.519
- relative viability ([2]; first compound 0.08 µM): 0.564
- relative viability ([2]; first compound 0.253 µM): 0.521
- relative viability ([2]; first compound 0.8 µM): 0.657
- relative viability ([2]; first compound 2.53 µM): 0.347
- relative viability ([2]; first compound 8 µM): 0.55
- relative viability ([3]; first compound 0.08 µM): 0.792
- relative viability ([3]; first compound 0.253 µM): 0.79
- relative viability ([3]; first compound 0.8 µM): 0.885
- relative viability ([3]; first compound 2.53 µM): 0.854
- relative viability ([3]; first compound 8 µM): 0.742
- relative viability ([4]; first compound 0.08 µM): 0.427
- relative viability ([4]; first compound 0.253 µM): 0.38
- relative viability ([4]; first compound 0.8 µM): 0.437
- relative viability ([4]; first compound 2.53 µM): 0.442
- relative viability ([4]; first compound 8 µM): 0.379

Cell Line: NCI-H2085
- relative viability ([1]; first compound 0.08 µM): 1.04
- relative viability ([1]; first compound 0.253 µM): 0.973
- relative viability ([1]; first compound 0.8 µM): 1.02
- relative viability ([1]; first compound 2.53 µM): 0.975
- relative viability ([1]; first compound 8 µM): 0.856
- relative viability ([2]; first compound 0.08 µM): 0.218
- relative viability ([2]; first compound 0.253 µM): 0.269
- relative viability ([2]; first compound 0.8 µM): 0.242
- relative viability ([2]; first compound 2.53 µM): 0.228
- relative viability ([2]; first compound 8 µM): 0.252
- relative viability ([3]; first compound 0.08 µM): 0.837
- relative viability ([3]; first compound 0.253 µM): 0.696
- relative viability ([3]; first compound 0.8 µM): 0.927
- relative viability ([3]; first compound 2.53 µM): 0.784
- relative viability ([3]; first compound 8 µM): 0.881
- relative viability ([4]; first compound 0.08 µM): 0.646
- relative viability ([4]; first compound 0.253 µM): 0.618
- relative viability ([4]; first compound 0.8 µM): 0.536
- relative viability ([4]; first compound 2.53 µM): 0.592
- relative viability ([4]; first compound 8 µM): 0.647

Cell Line: NCI-H2087
- relative viability ([1]; first compound 0.08 µM): 1.23
- relative viability ([1]; first compound 0.253 µM): 1.01
- relative viability ([1]; first compound 0.8 µM): 1.15
- relative viability ([1]; first compound 2.53 µM): 1.21
- relative viability ([1]; first compound 8 µM): 0.909
- relative viability ([2]; first compound 0.08 µM): 0.963
- relative viability ([2]; first compound 0.253 µM): 0.973
- relative viability ([2]; first compound 0.8 µM): 1.12
- relative viability ([2]; first compound 8 µM): 0.681
- relative viability ([3]; first compound 0.08 µM): 1.19
- relative viability ([3]; first compound 0.253 µM): 1.02
- relative viability ([3]; first compound 0.8 µM): 1.21
- relative viability ([3]; first compound 2.53 µM): 1.07
- relative viability ([3]; first compound 8 µM): 1.11
- relative viability ([4]; first compound 0.08 µM): 0.519
- relative viability ([4]; first compound 0.253 µM): 0.416
- relative viability ([4]; first compound 0.8 µM): 0.454
- relative viability ([4]; first compound 2.53 µM): 0.493
- relative viability ([4]; first compound 8 µM): 0.529

Cell Line: NCI-H2126
- relative viability ([1]; first compound 0.08 µM): 0.759
- relative viability ([1]; first compound 0.253 µM): 0.814
- relative viability ([1]; first compound 0.8 µM): 0.78
- relative viability ([1]; first compound 2.53 µM): 0.55
- relative viability ([1]; first compound 8 µM): 0.707
- relative viability ([2]; first compound 0.08 µM): 0.596
- relative viability ([2]; first compound 0.253 µM): 0.717
- relative viability ([2]; first compound 0.8 µM): 0.724
- relative viability ([2]; first compound 8 µM): 0.601
- relative viability ([3]; first compound 0.08 µM): 1.14
- relative viability ([3]; first compound 0.253 µM): 1.13
- relative viability ([3]; first compound 0.8 µM): 1.16
- relative viability ([3]; first compound 2.53 µM): 1.09
- relative viability ([3]; first compound 8 µM): 1.15
- relative viability ([4]; first compound 0.08 µM): 0.554
- relative viability ([4]; first compound 0.253 µM): 0.5
- relative viability ([4]; first compound 0.8 µM): 0.51
- relative viability ([4]; first compound 2.53 µM): 0.492
- relative viability ([4]; first compound 8 µM): 0.461

Cell Line: NCI-H2170
- relative viability ([1]; first compound 0.08 µM): 0.905
- relative viability ([1]; first compound 0.253 µM): 0.799
- relative viability ([1]; first compound 0.8 µM): 0.84
- relative viability ([1]; first compound 2.53 µM): 0.777
- relative viability ([1]; first compound 8 µM): 0.772
- relative viability ([2]; first compound 0.08 µM): 0.601
- relative viability ([2]; first compound 0.253 µM): 0.737
- relative viability ([2]; first compound 0.8 µM): 0.558
- relative viability ([2]; first compound 2.53 µM): 0.526
- relative viability ([2]; first compound 8 µM): 0.497
- relative viability ([3]; first compound 0.08 µM): 1.01
- relative viability ([3]; first compound 0.253 µM): 0.962
- relative viability ([3]; first compound 0.8 µM): 1.03
- relative viability ([3]; first compound 2.53 µM): 1.04
- relative viability ([3]; first compound 8 µM): 0.915
- relative viability ([4]; first compound 0.08 µM): 0.381
- relative viability ([4]; first compound 0.253 µM): 0.359
- relative viability ([4]; first compound 0.8 µM): 0.494
- relative viability ([4]; first compound 2.53 µM): 0.43
- relative viability ([4]; first compound 8 µM): 0.503

Cell Line: NCI-H2228
- relative viability ([1]; first compound 0.08 µM): 0.904
- relative viability ([1]; first compound 0.253 µM): 1.06
- relative viability ([1]; first compound 0.8 µM): 0.687
- relative viability ([1]; first compound 2.53 µM): 0.796
- relative viability ([1]; first compound 8 µM): 0.451
- relative viability ([2]; first compound 0.08 µM): 0.625
- relative viability ([2]; first compound 0.253 µM): 0.581
- relative viability ([2]; first compound 0.8 µM): 0.471
- relative viability ([2]; first compound 2.53 µM): 0.363
- relative viability ([2]; first compound 8 µM): 0.43
- relative viability ([3]; first compound 0.08 µM): 0.672
- relative viability ([3]; first compound 0.253 µM): 0.744
- relative viability ([3]; first compound 0.8 µM): 0.945
- relative viability ([3]; first compound 2.53 µM): 0.854
- relative viability ([3]; first compound 8 µM): 0.717
- relative viability ([4]; first compound 0.08 µM): 0.358
- relative viability ([4]; first compound 0.253 µM): 0.221
- relative viability ([4]; first compound 0.8 µM): 0.225
- relative viability ([4]; first compound 2.53 µM): 0.348
- relative viability ([4]; first compound 8 µM): 0.24

Cell Line: NCI-H2347
- relative viability ([1]; first compound 0.08 µM): 0.958
- relative viability ([1]; first compound 0.253 µM): 1.05
- relative viability ([1]; first compound 0.8 µM): 1.11
- relative viability ([1]; first compound 2.53 µM): 1.05
- relative viability ([1]; first compound 8 µM): 1.11
- relative viability ([2]; first compound 0.08 µM): 0.307
- relative viability ([2]; first compound 0.253 µM): 0.307
- relative viability ([2]; first compound 0.8 µM): 0.318
- relative viability ([2]; first compound 2.53 µM): 0.285
- relative viability ([2]; first compound 8 µM): 0.342
- relative viability ([3]; first compound 0.253 µM): 0.618
- relative viability ([3]; first compound 0.8 µM): 0.885
- relative viability ([3]; first compound 2.53 µM): 0.857
- relative viability ([3]; first compound 8 µM): 1.04
- relative viability ([4]; first compound 0.08 µM): 0.284
- relative viability ([4]; first compound 0.8 µM): 0.376
- relative viability ([4]; first compound 2.53 µM): 0.5
- relative viability ([4]; first compound 8 µM): 0.441
